# Data as given in US7763626B2, “Compositions and method for enhancing the therapeutic activity of opiods in treatment of pain” (Trustees of Dartmouth College, priority 2004, dated 2010).
# How the values were obtained:
# Format in all cases: in vivo, rat
# TNF-α protein = experiment: Cytokine protein estimation by ELISA at L5 spinal cord; conditions: propentofylline 10 micrograms intrathecally for 5 days during induction of morphine tolerance
# Method: (§1) Quantitative determination of IL-1β, TNF-α and IL-6 protein was performed on the L5 spinal cord of the rats. […] Briefly, weighed sections of L5 spinal cord were homogenized in a homogenization buffer consisting of a protease inhibitor using the a Power Gen 125 tissue tearer (Fisher Scientific, Suwanee, Ga.). Samples were spun at 20,000×g for 30 minutes at 4° C. Supernatant was aliquoted and stored at −80° C. for future protein quantification. IL-1β and TNF-α (R&D Systems, Minneapolis, Minn.) and IL-6 (Biosource, Camarillo, Calif.) protein concentrations were determined utilizing the quantitative sandwich enzyme immunoassay.
# IL-1β protein = experiment: as above; conditions: propentofylline 10 micrograms intrathecally for 5 days during induction of morphine tolerance
# Method: as §1
# IL-6 protein = experiment: as above; conditions: propentofylline 10 micrograms intrathecally for 5 days during induction of morphine tolerance
# Method: as §1
# Male Sprague-Dawley rats = experiment: Mechanical allodynia (von Frey filaments), morphine withdrawal
# Method: Male Sprague-Dawley rats (175-200 grams, Harlan, Indianapolis, Ind.) were divided into two groups (n=8 per group). Rats received subcutaneous injections of either saline or morphine (10 mg/kg; Sigma, St. Louis, Mo.) twice daily at 0800 to 0900 and 1600-1700 hour for 5 days in order to induce opioid tolerance. Chronic morphine withdrawal-induced hyperalgesia and allodynia were assessed in the animals 16 hours after the last injection of morphine. Following the recording of morphine withdrawal-induced hyperalgesia and allodynia, animals were treated with morphine (5 microgram) acutely via lumbar intrathecal injection to study the expression of morphine tolerance. Acute analgesic activity or intrathecal morphine in morphine-tolerant and chronic aline-treated rats were evaluated by mechanical (Analgesy-Meter) and thermal (tail-flick) test paradigms. Behaviors recorded prior to the acute administration of intrathecal morphine served as the basal latency measures.
# With an understanding of the effects of morphine alone, separate groups of rats (n=8) received with saline or morphine (10 mg/kg subcutaneously, twice daily for 5 days) and also received once daily injections (at 1100 to 1200 hour) of propentofylline (1 and 10 micrograms) or saline via direct lumbar puncture during the induction of morphine tolerance. Again, chronic morphine withdrawal-induced hyperalgesia and allodynia were assessed in the animals 16 hours after the last subcutaneous morphine injection. Following the recording of morphine withdrawal-induced hyperalgesia and allodynia, animals were treated with morphine (5 micrograms) acutely via lumbar puncture to study the expression of morphine tolerance. As before, the acute analgesic activity of intrathecal morphine in morphine-tolerant and saline-injected rats was evaluated by mechanical (Analgesy-Meter) and thermal (tail-flick) test paradigms. Behavior recorded prior to the acute administration of intrathecal morphine served as the basal latency.
# Mechanical sensitivity was measured as the frequency of foot withdrawals elicited by a defined mechanical stimulus. Each rat, under unrestrained conditions, was placed beneath an inverted, ventilated Plexiglas cage upon an elevated aluminum screen surface with 1 cm mesh openings. Animals had been previously acclimated to the environment and the experimenter.
# In blinded testing, rats were subjected to sequential series of 10 tactile stimulations to the dorsal surface of the ipsilateral hindpaw using […] von Frey filaments (Stoelting Co., WoodDale, Ill.) sequentially. The number of foot withdrawals to this normally non-noxious stimulus determined mechanical allodynia. Mechanical sensitivity was assessed by recording the total number of responses elicited during three successive trials separated by at least 10 minutes. The pressure required to elicit paw withdrawal, the paw pressure threshold was determined.
# GLT-1 mRNA = experiment: Real time RT-PCR of ipsilateral lumbar spinal cord after L5 spinal nerve transection; conditions: daily intrathecal propentofylline 10 μg
# Method: (§2) Experiments were performed to determine how propentofylline-induced suppression of glial activation contribute to reduced behavioral hypersensitivity after nerve injury. In a preventative paradigm, 10 μg of propentofylline (Sigma) to male Sprague-Dawley rats in 40 μl of sterile saline, or saline vehicle alone was administered intrathecally (i.t.) by lumbar puncture at the L4/5 level under brief halothane anesthesia (n=6-8/group). Treatment began one hour prior to L5 spinal nerve transection and continued daily in the evening until day 4 or 12 post-transection. Rats received either an L5 spinal nerve transection or sham surgery on day 0. The development of mechanical allodynia was monitored as described above in the morning at approximately 15 hours post-propentofylline or saline injection. Rats were euthanized on day 4 or 12 post-transection and tissue was further processed by real time RT-PCR, Western blot, or immunohistochemistry for determination of levels and rate of synthesis of the glutamate transporters GLT-1 and GLAST.
# (§3) Tissue was collected from 4-5 rats/group on postoperative days 4 or 12. In order to obtain both mRNA and protein from the same tissue sample, the L5 region of the spinal cord (ipsilateral to the injury), was isolated and placed in PBS supplemented with protease inhibitor cocktail (1:1000, Sigma, St. Louis, Mo.) and RNase inhibitor (0.75 U/μL Ambion, Austin, Tex.). […]
# (§4) Real time RT-PCR reactions were carried out in a total reaction volume of 25 uL containing a final concentration of 1.5 U Platinum Taq DNA polymerase (Invitrogen); 20 mM Tris HCl (pH 8.4); 50 mM KCl; 3 mM MgCl2; 200 uM dGTP, dCTP, and dATP; 400 uM dUTP and 1 U of UDG (uracyl DNA glycosylase); 900 nM of forward and reverse primers; 300 nM Taqman probe; and 5 uL of a 10-fold dilution of cDNA (50 ng) from the RT step. […] The iCycler Multicolor Real-Time PCR detection system (Bio-Rad) was used to quantify PCR product. The fluorescence and threshold values obtained were used to compare the relative amount of target mRNA in experimental groups to those of controls (Livak and Schmittgen 2001). […]
# GLAST mRNA = experiment: as above; conditions: day 4; compared to L5 spinal nerve transection alone; did not attain statistical significance
# Method: as §2, §3, §4
compound,measurement,setting,value
CCCn1cnc2c1c(=O)n(CCCCC(C)=O)c(=O)n2C [propentofylline],morphine-induced TNF-α protein levels,TNF-α protein,significantly attenuated
same,morphine-induced IL-1β protein levels,IL-1β protein,significantly attenuated
same,morphine-induced IL-6 protein levels,IL-6 protein,significantly attenuated
same,morphine withdrawal-induced mechanical allodynia,"Male Sprague-Dawley rats; 16 hours after last morphine injection (10 mg/kg s.c. twice daily 5 days), propentofylline 1 and 10 micrograms intrathecally for 5 days during induction of tolerance",significantly attenuated
same,Mechanical allodynia (2 grams),"Male Sprague-Dawley rats; number of foot withdrawals, 2 grams von Frey filament, morphine 10 mg/kg s.c. twice daily 5 days and/or propentofylline 10 micrograms intrathecally",0
same,Mechanical allodynia (12 grams),"Male Sprague-Dawley rats; number of foot withdrawals, 12 grams von Frey filament, morphine 10 mg/kg s.c. twice daily 5 days and/or propentofylline 10 micrograms intrathecally",0
same,GLT-1 mRNA level,"GLT-1 mRNA; day 4 post-transection, vs sham-operated and L5 nerve transected rats",significantly increased
same,GLT-1 mRNA level,"GLT-1 mRNA; day 12 post-transection, vs L5 nerve transected rats",significantly increased
same,GLAST mRNA level,GLAST mRNA,slight decrease
